In patent publication US4975437A, “Isomers of 1-azabicyclo(2.2.2)oct-3-yl 1,4-dihydro-2,6-dimethyl-4-(3-nitrophenyl)-5-nitropyridine-3-carboxylate” (Marion Laboratories, Inc., priority 1989, dated 1990):
Where a name gives a salt, the structure may show the parent alone. Read-outs that look alike come from different tables or passages of the source.

Key:
[1] = tested on: radioactive calcium uptake; settings: cited from earlier work
rabbit aortic rings = settings: cited from earlier work
[2] = tested on: voltage sensitive calcium channels; test: Potentiation of Calcium Influx across the Membrane (Quin 2 fluorescence); format: cell-based, murine; settings: NG108-15 (NGI08-15 [sic]) cells, KCl 50 mM depolarization, 37° C, percent enhancement over potassium chloride stimulation
Procedure: This test system was developed to evaluate the relative ability of compounds to potentiate calcium influx into cells via voltage sensitive calcium channels. The technique employs a high calcium affinity fluorescent dye to monitor changes in intracellular free calcium concentrations. The cells are incubated with a protected non-fluorescent form of the calcium sensitive dye. This compound permeates the cell wall and enters the cell. There it is transformed by enzymes into the fluorescent dye Quin 2 which cannot leave the cell Quin 2 has a high affinity for calcium ions and when calcium is bound to the dye, the complex fluoresces, the intensity of the fluorescence being proportional to the concentration of calcium ions. Voltage sensitive calcium channels are activated by the addition of potassium chloride to the media and calcium ion influx occurs. The increase in fluorescence is measured, giving a relative measure of calcium influx, the control value. In a separate cuvette, both potassium chloride and the test compound are administered to the cells and the fluorescence measured. A calcium agonist should increase influx of calcium into the cells and therefore an increase in the fluorescence. The percent stimulation above control is obtained from the increase in fluorescence.
Differentiated murine neuronal (neuroblastoma x glioma) hybrid cells (NGI08-15) which contain an abundance of voltage dependant calcium channels were used as a source of tissue for testing these compounds.
Briefly, NGI08-15 cells were cultured in 10% CO2 at 37° C. in Dulbecco's modified Eagle's medium (DMEM) supplemented with glutamine (1.0 mM). fetal bovine serum (FBS; 10%). and hypoxanthine (100 μM), aminopterin (1.0 μM). and thymidine (20 μM). Differentiation was induced by treatment with dibutyl cyclic AMP (4 days, 1.0 mM) [L. Noronha-Blob, C. […] Dispersed cells (5×10^6 cells/mL) were incubated with quin 2 acetoxymethyl ester (quin 2-AM, the calcium specific dye) [100 μM. in dimethyl sulfoxide (DMSO)] for 60 minutes at 37° C. The control suspensions received only DMSO. Cells were then diluted in ice-cold media, centrifuged and washed twice (1,500×g, 3 minutes) in ice-cold HEPES buffer (composition: 130 mM NaCl, 5.0 mM KCl, 6.0 mM glucose, 1.0 mM MgCl2, 1.0 mM CaCl2, and 20 mM HEPES, pH 7 4).
The change in fluorescence was calculated from the difference between final and initial values. The results were expressed as a percent enhancement over potassium chloride stimulation (control).

[3] = tested on: smooth muscle (longitudinal muscle of ileum); test: Enhancement of Calcium Ion Evoked Smooth Muscle Contractility (isolated ileum longitudinal muscle); settings: guinea pig ileum; for Concentration at Maximum Enhancement: concentration of compound that produced the maximum enhancement; for Maximum Enhancement (% maximum contraction): 6 min; for minimal effective concentration: lowest concentration that produced enhancement of calcium evoked contraction, 37° C, read-out: Threshold for Enhancement
Excerpt: This test is a measure of the ability of test compounds to enhance muscle contraction caused by calcium ions. A sample of muscle was placed under tension in a device to measure its length and contracted by addition of potassium chloride (to activate the calcium channels) followed by addition of a calcium ion solution. The addition of a calcium agonist should cause the influx of additional calcium ions and thereby cause further contraction of the muscle. The lowest concentration of test compound necessary to evoke this additional contraction was measured, as were the maximum contraction obtained and the concentration at which it was reached
The ileum of male albino guinea pigs were cut into 3-4 cm segments. The longitudinal muscle, with myenteric plexus attached, was separated from the circular muscle. […] Each preparation was suspended under resting tension of 0.3 g. The tissues were switched to calcium free Tryodes solution for 24 minutes. with complete replacement of the solution every four minutes. Potassium chloride was then added to produce a bath concentration of […], and calcium solutions were cumulatively added to increase the bath calcium ion concentration to 0.2-8.0 mM. The tissues were re-equilibrated in normal Tyrodes and then calcium free Tyrodes. Enhancement of calcium evoked contractions in the presence of drug were determined by repeating the cumulative addition procedure after the tissues were exposed to the drug for six minutes. Responses were expressed relative to the maximum contraction elicited by calcium ion in the absence of the drug.

[4] = in words; cited from earlier work
[5] = tested on: extracellular calcium ions; settings: in words, dose-dependent; cited from earlier work
[6] = tested on: isolated rabbit aortic strips; settings: cited from earlier work
[7] = tested on: isolated guinea pig atrium; settings: cited from earlier work
[8] = increase above control as percent of maximum control calcium evoked contraction, 6 min drug exposure

SMILES	% Stimulation Above Control [2]	Concentration at Maximum Enhancement [3]	Maximum Enhancement (% maximum contraction) [3, 8]	minimal effective concentration ([3]; 6 min drug exposure)	other results
CC1=C(C(=O)OC(C)C)C(c2cccc3nonc23)C([N+](=O)[O-])=C(C)N1 (racemic) [Example 202-792, 2-propyl 4-(4-benzofurazanyl)-1,4-dihydro-2,6-dimethyl-5-nitropyridine-3-carboxylate]	–	–	–	–	radioactive calcium uptake ([1]; high levels of depolarization): inhibited contraction and radioactive calcium uptake at high levels of depolarization; contraction of aortic rings (rabbit aortic rings; high levels of depolarization): inhibited contraction; contraction of aortic rings (rabbit aortic rings; low levels of depolarization): enhanced contractions of rabbit aortic rings at low levels of depolarization
CC1=C(C(=O)OC2CN3CCC2CC3)C(c2cccc([N+](=O)[O-])c2)C([N+](=O)[O-])=C(C)N1 (single isomer, unassigned) [(+a, +b), (+a, +b)-1-Azabicyclo[2.2.2]oct-3-yl 1,4-Dihydro-2,6-dimethyl-4-(3-nitrophenyl)-5-nitropyridine-3-carboxylate fumarate]	20%	100 nM	11%	10 nM	–
CC1=C(C(=O)OC2CN3CCC2CC3)C(c2cccc([N+](=O)[O-])c2)C([N+](=O)[O-])=C(C)N1 (single isomer, unassigned) [(+a, -b), (+a, -b)-1-Azabicyclo[2.2.2]oct-3-yl 1,4-Dihydro-2,6-dimethyl-4-(3-nitrophenyl)-5-nitropyridine-3-carboxylate fumarate]	31%	10 nM	15%	10 nM	–
CC1=C(C(=O)OC2CN3CCC2CC3)C(c2cccc([N+](=O)[O-])c2)C([N+](=O)[O-])=C(C)N1 (single isomer, unassigned) [(-a, +b), (-a, +b)-1-Azabicyclo[2.2.2]oct-yl 1.4-Dihydro-2,6-dimethyl-4-(3-nitrophenyl)-5-nitropyridine-3-carboxylate fumarate]	25%	1000 nM	13%	100 nM	–
CC1=C(C(=O)OC2CN3CCC2CC3)C(c2cccc([N+](=O)[O-])c2)C([N+](=O)[O-])=C(C)N1 (single isomer, unassigned) [(-a, -b), (-a, -b)-1-Azabicyclo[2.2.2]oct-3-yl 1,4-Dihydro-2,6-dimethyl-4-(3-nitrophenyl)-5-nitropyridine-3-carboxylate fumarate]	10%	10 nM	18%	10 nM	–
COC(=O)C1=C(C)NC(C)=C([N+](=O)[O-])C1c1ccccc1C(F)(F)F (centres unmarked) [BAY K 8644, Methyl 1,4-dihydro-2,6-dimethyl-5-nitro-4-(2-trifluoromethylphenyl)-3-pyridine carboxylate]	38%	100 nM	–	–	inotropic effect [4]: potent positive inotropic effects; Emax ([3]; Cavia porcellus, 0.1 h, increase above control as percent of maximum control calcium evoked contraction, 6 min drug exposure): 38%; minimal effective concentration ([3]; Cavia porcellus, 0.1 h, 6 min drug exposure): 10 nM
CCOC(=O)C1=C(C)NC2=C(C(=O)OC2)C1c1ccccc1OC(F)F (centres unmarked) [CGP 28392, ethyl 4-[2-(difluoromethoxy)phenyl]-1,4,5,7-tetrahydro-2-methyl-5-oxofuro[3,4-b]pyridine-3-carboxylate]	–	–	–	–	concentration of extracellular calcium ions [5]: increase in a dose-dependent manner the concentration of extracellular calcium ions
CC1=C(C(=O)OC(C)C)[C@@H](c2cccc3nonc23)C([N+](=O)[O-])=C(C)N1 [R enantiomer]	–	–	–	–	radioactive calcium uptake ([1]; single enantiomer, in words): inhibited contraction and radioactive calcium uptake; contraction (rabbit aortic rings; single enantiomer, in words): inhibited contraction; stimulant activity (rabbit aortic rings; single enantiomer, in words): no stimulant activity
CC1=C(C(=O)OC(C)C)[C@H](c2cccc3nonc23)C([N+](=O)[O-])=C(C)N1 [S enantiomer]	–	–	–	–	radioactive calcium uptake ([1]; single enantiomer, in words): enhanced radioactive calcium uptake dependently at all levels of depolarization; concentration-response curve for depolarization-induced contraction (rabbit aortic rings; single enantiomer, in words): shifted the concentration-response curve for depolarization-induced contraction in an almost parallel fashion to the left; contraction (rabbit aortic rings; single enantiomer, in words): enhanced contraction
CC1=C(C(=O)Nc2ccccc2)C(c2ccccc2Cl)C(C(=O)OCCc2ccccn2)=C(C)N1 (centres unmarked) [YC-170]	–	–	–	–	contraction of aortic strips ([6]; isolated rabbit aortic strips): induced contraction; relaxant effect on aorta ([6]; precontracted by a high concentration of potassium): relaxant effect; inotropic effect in atrium ([7]; isolated guinea pig atrium): positive inotropic effect; contractile tension in atrium ([7]; partially depolarized with a low concentration of potassium): decrease in contractile tension
